Experimental data published in patent US20230416330A1, “Optimized GIP Peptide Analogues” (Antag Therapeutics ApS, priority 2019, published 2023).
Starred links: 1 amine or outer side, 2 acyl side, 3 side chain; linkers in the order of their positions; H or OH if unused. Positions of bridges follow the written chain, without caps; N, C: chain ends. Non-standard residues stand in square brackets, D forms with d. Residues, ends and D or L forms follow the SMILES beside them. Groups on a side chain read outwards from the residue. Chains are numbered I, II in the order given. No end group written: not given here. *: point of attachment. C16 diacid = O=C(O)CCCCCCCCCCCCCCC(=O)*; Glutaryl = O=C(CCCC(=O)[*:2])[*:1]; Aib = CC(C)(N)C(=O)O

T1: human GIP receptor (human, UniProt P48546 22-466)
T1 sequence (looked up): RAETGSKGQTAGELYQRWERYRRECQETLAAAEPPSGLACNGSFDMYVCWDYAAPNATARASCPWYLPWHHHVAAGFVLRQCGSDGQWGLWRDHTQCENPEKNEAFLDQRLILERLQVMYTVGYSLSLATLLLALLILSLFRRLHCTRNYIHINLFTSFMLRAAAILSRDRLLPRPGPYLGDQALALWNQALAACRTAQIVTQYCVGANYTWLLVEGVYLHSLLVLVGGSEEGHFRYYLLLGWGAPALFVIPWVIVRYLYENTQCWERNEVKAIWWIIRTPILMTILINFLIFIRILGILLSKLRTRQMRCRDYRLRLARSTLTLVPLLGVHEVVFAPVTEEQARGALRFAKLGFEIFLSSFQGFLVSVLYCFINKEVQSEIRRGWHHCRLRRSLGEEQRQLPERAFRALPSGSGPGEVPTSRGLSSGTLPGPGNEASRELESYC

B1: AT720 (peptide)
peptide: EGTFISEYSI[Aib]LEKIK([Aib-C16 diacid])QQEFVEWLLAQKPSSGAPPPS-OH
modifications: N-terminus assumed
SMILES: CC[C@H](C)[C@H](NC(=O)[C@H](CCCCN)NC(=O)[C@H](CCC(=O)O)NC(=O)[C@H](CC(C)C)NC(=O)C(C)(C)NC(=O)[C@@H](NC(=O)[C@H](CO)NC(=O)[C@H](Cc1ccc(O)cc1)NC(=O)[C@H](CCC(=O)O)NC(=O)[C@H](CO)NC(=O)[C@@H](NC(=O)[C@H](Cc1ccccc1)NC(=O)[C@@H](NC(=O)CNC(=O)[C@@H](N)CCC(=O)O)[C@@H](C)O)[C@@H](C)CC)[C@@H](C)CC)C(=O)N[C@@H](CCCCNC(=O)C(C)(C)NC(=O)CCCCCCCCCCCCCCC(=O)O)C(=O)N[C@@H](CCC(N)=O)C(=O)N[C@@H](CCC(N)=O)C(=O)N[C@@H](CCC(=O)O)C(=O)N[C@@H](Cc1ccccc1)C(=O)N[C@H](C(=O)N[C@@H](CCC(=O)O)C(=O)N[C@@H](Cc1c[nH]c2ccccc12)C(=O)N[C@@H](CC(C)C)C(=O)N[C@@H](CC(C)C)C(=O)N[C@@H](C)C(=O)N[C@@H](CCC(N)=O)C(=O)N[C@@H](CCCCN)C(=O)N1CCC[C@H]1C(=O)N[C@@H](CO)C(=O)N[C@@H](CO)C(=O)NCC(=O)N[C@@H](C)C(=O)N1CCC[C@H]1C(=O)N1CCC[C@H]1C(=O)N1CCC[C@H]1C(=O)N[C@@H](CO)C(=O)O)C(C)C
B2: AT719 (peptide)
peptide: EGTFISDYSIAMDKIK(C16 diacid)QQDFVNWLLAQK-OH
modifications: N-terminus assumed
SMILES: CC[C@H](C)[C@H](NC(=O)[C@H](CO)NC(=O)[C@H](Cc1ccc(O)cc1)NC(=O)[C@H](CC(=O)O)NC(=O)[C@H](CO)NC(=O)[C@@H](NC(=O)[C@H](Cc1ccccc1)NC(=O)[C@@H](NC(=O)CNC(=O)[C@@H](N)CCC(=O)O)[C@@H](C)O)[C@@H](C)CC)C(=O)N[C@@H](C)C(=O)N[C@@H](CCSC)C(=O)N[C@@H](CC(=O)O)C(=O)N[C@@H](CCCCN)C(=O)N[C@H](C(=O)N[C@@H](CCCCNC(=O)CCCCCCCCCCCCCCC(=O)O)C(=O)N[C@@H](CCC(N)=O)C(=O)N[C@@H](CCC(N)=O)C(=O)N[C@@H](CC(=O)O)C(=O)N[C@@H](Cc1ccccc1)C(=O)N[C@H](C(=O)N[C@@H](CC(N)=O)C(=O)N[C@@H](Cc1c[nH]c2ccccc12)C(=O)N[C@@H](CC(C)C)C(=O)N[C@@H](CC(C)C)C(=O)N[C@@H](C)C(=O)N[C@@H](CCC(N)=O)C(=O)N[C@@H](CCCCN)C(=O)O)C(C)C)[C@@H](C)CC

What was measured:
[1] = Physical stability: fibril formation in Thioflavin T (ThT) assay with agitation; type: physicochemical; details: for Avr lag time (h): 25° C., agitation
Summary of the method: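 Read-out is continuous ThT fluorescence at 486 nm, with lag time taken where signal reaches 10% between pre- and post-transition baselines. Filtered samples (1, 5, 7.5 or 15 mg/ml; pH 7.4 phosphate buffer or NaOH-adjusted water) were stressed at 25° C. by orbital rotation at 300 rpm with one silica bead per well.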

[2] = Solubility by visual inspection of peptide solutions; type: physicochemical
Summary of the method: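 Solubility scored by eye: clear, colorless appearance after gentle mixing. Samples prepared at 1, 5, 7.5 or 15 mg/ml in either pH 7.4 water (NaOH-adjusted) or 50 mM sodium phosphate buffer, pH 7.4.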

human GIP receptor = molecular target: T1, human GIP receptor; assay: cell-based or functional assay

Molecule	Avr lag time (h) ([1]; 1 mg/ml, TFA, Phosphate (7.4))	Avr lag time (h) ([1]; 5 mg/ml, TFA, MilliQ)	Visual appearance ([2]; 1 mg/ml, TFA, Phosphate (7.4))	Visual appearance ([2]; 5 mg/ml, TFA, MilliQ)	nM (Kb, Gaddum assay, cAMP) (human GIP receptor)	pKb (Gaddum assay, cAMP) (human GIP receptor)	other results
CC[C@H](C)[C@H](NC(=O)[C@H](CCCCN)NC(=O)[C@H](CC(=O)O)NC(=O)[C@H](CCSC)NC(=O)C(C)(C)NC(=O)[C@@H](NC(=O)[C@H](CO)NC(=O)[C@H](Cc1ccc(O)cc1)NC(=O)[C@H](CC(=O)O)NC(=O)[C@H](CO)NC(=O)[C@@H](NC(=O)[C@H](Cc1ccccc1)NC(=O)[C@@H](NC(=O)CNC(=O)[C@@H](N)CCC(=O)O)[C@@H](C)O)[C@@H](C)CC)[C@@H](C)CC)C(=O)N[C@@H](CCCCNC(=O)CCCCCCCCCCCCCCC(=O)O)C(=O)N[C@@H](CCC(N)=O)C(=O)N[C@@H](CCC(N)=O)C(=O)N[C@@H](CC(=O)O)C(=O)N[C@@H](Cc1ccccc1)C(=O)N[C@H](C(=O)N[C@@H](CC(N)=O)C(=O)N[C@@H](Cc1c[nH]c2ccccc12)C(=O)N[C@@H](CC(C)C)C(=O)N[C@@H](CC(C)C)C(=O)N[C@@H](C)C(=O)N[C@@H](CCC(N)=O)C(=O)N[C@@H](CCCCN)C(=O)N1CCC[C@H]1C(=O)N[C@@H](CO)C(=O)N[C@@H](CO)C(=O)NCC(=O)N[C@@H](C)C(=O)N1CCC[C@H]1C(=O)N1CCC[C@H]1C(=O)N1CCC[C@H]1C(=O)N[C@@H](CO)C(=O)O)C(C)C [AT760] (H-EGTFISDYSI[Aib]MDKIK(C16 diacid)QQDFVNWLLAQKPSSGAPPPS-OH; N-terminus assumed)	fnd (Fnd = fibrils not detected within experiment time (96 hours) with agitation.)	fnd (Fnd = fibrils not detected within experiment time (96 hours) with agitation.)	Clear	Clear	–	–	–
CC[C@H](C)[C@H](NC(=O)[C@H](CCCCN)NC(=O)[C@H](CC(=O)O)NC(=O)[C@H](CCSC)NC(=O)C(C)(C)NC(=O)[C@@H](NC(=O)[C@H](CO)NC(=O)[C@H](Cc1ccc(O)cc1)NC(=O)[C@H](CC(=O)O)NC(=O)[C@H](CO)NC(=O)[C@@H](NC(=O)[C@H](Cc1ccccc1)NC(=O)[C@@H](NC(=O)CNC(=O)CCCC(=O)O)[C@@H](C)O)[C@@H](C)CC)[C@@H](C)CC)C(=O)N[C@@H](CCCCNC(=O)CCCCCCCCCCCCCCC(=O)O)C(=O)N[C@@H](CCC(N)=O)C(=O)N[C@@H](CCC(N)=O)C(=O)N[C@@H](CC(=O)O)C(=O)N[C@@H](Cc1ccccc1)C(=O)N[C@H](C(=O)N[C@@H](CC(N)=O)C(=O)N[C@@H](Cc1c[nH]c2ccccc12)C(=O)N[C@@H](CC(C)C)C(=O)N[C@@H](CC(C)C)C(=O)N[C@@H](C)C(=O)N[C@@H](CCC(N)=O)C(=O)N[C@@H](CCCCN)C(=O)N1CCC[C@H]1C(=O)N[C@@H](CO)C(=O)N[C@@H](CO)C(=O)NCC(=O)N[C@@H](C)C(=O)N1CCC[C@H]1C(=O)N1CCC[C@H]1C(=O)N1CCC[C@H]1C(=O)N[C@@H](CO)C(=O)O)C(C)C [AT763] (Glutaryl-GTFISDYSI[Aib]MDKIK(C16 diacid)QQDFVNWLLAQKPSSGAPPPS-OH)	fnd (Fnd = fibrils not detected within experiment time (96 hours) with agitation.)	fnd (Fnd = fibrils not detected within experiment time (96 hours) with agitation.)	Clear	Clear	–	–	Avr lag time (h) ([1]; 5 mg/ml, TFA, Phosphate): fnd (Fnd = fibrils not detected within experiment time (96 hours) with agitation.); Fibril formation (FIG. 1) ([1]; in phosphate buffer, about 94 h, orbital rotation): does not form fibrils; Visual appearance ([2]; 5 mg/ml, TFA, Phosphate): Clear
I: EGTFISEYSI[Aib]LEKIKQQEFVEWLLAQKPSSGAPPPS-OH / II: {C16 diacid}-GGGGS (amide I:16-II:C) [AT722]	fnd (Fnd = fibrils not detected within experiment time (96 hours) with agitation.)	–	Clear	–	–	–	Avr lag time (h) ([1]; 7.5 mg/ml, Na, MilliQ (8)): fnd (Fnd = fibrils not detected within experiment time (96 hours) with agitation.); Avr lag time (h) ([1]; 15 mg/ml, Na, MilliQ (8)): fnd (Fnd = fibrils not detected within experiment time (96 hours) with agitation.); Visual appearance ([2]; 7.5 mg/ml, Na, MilliQ (8)): Clear; Visual appearance ([2]; 15 mg/ml, Na, MilliQ (8)): Clear
B1	–	–	–	–	0.29 nM	9.5	–
B2	–	–	–	–	7.6 nM	8.1	–
